Where two headings read alike, the source gives them in different places.
Legend:
[1] = biological target: T1, rabbit reticulocyte 15-LO (Oryctolagus cuniculus, UniProt P12530); test: Rabbit Reticulocyte 15-LO Assay (h15LO); assay type: biochemical; details: for IC50: 2U rabbit reticulocyte 15-LO, 174 μM linoleic acid, 15 minutes at 4° C.
T1 construct: Fifteen-lipoxygenase was obtained from phenylhydrazine-treated rabbits and purified per the method of Rapoport; from tissue; host or cells: reticulocytes of phenylhydrazine-treated rabbits
T1 sequence (P12530 1-663): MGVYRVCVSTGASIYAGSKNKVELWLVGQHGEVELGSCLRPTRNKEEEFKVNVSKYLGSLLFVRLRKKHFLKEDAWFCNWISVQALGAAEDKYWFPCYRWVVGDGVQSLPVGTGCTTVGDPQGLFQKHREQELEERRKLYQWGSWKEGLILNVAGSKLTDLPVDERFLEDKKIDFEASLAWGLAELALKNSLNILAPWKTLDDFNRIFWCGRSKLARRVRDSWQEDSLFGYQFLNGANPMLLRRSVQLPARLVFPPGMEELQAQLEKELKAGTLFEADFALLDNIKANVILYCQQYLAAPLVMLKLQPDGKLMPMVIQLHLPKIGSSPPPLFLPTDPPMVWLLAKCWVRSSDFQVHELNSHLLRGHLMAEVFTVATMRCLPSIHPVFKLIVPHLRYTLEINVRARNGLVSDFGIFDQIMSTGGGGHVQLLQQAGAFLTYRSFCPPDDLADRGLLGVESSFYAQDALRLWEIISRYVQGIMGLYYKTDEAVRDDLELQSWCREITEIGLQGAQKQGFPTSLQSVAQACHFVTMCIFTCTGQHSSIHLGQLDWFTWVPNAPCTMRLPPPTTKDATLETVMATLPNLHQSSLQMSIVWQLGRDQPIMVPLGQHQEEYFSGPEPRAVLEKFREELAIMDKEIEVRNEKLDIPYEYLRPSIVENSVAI
Procedure, shortened: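 Purified rabbit reticulocyte 15-LO (2U) incubated with inhibitor and 174 μM linoleic acid in PBS with 0.2% Na cholate for 15 minutes at 4° C. 13-HPODE quantified by peak area against 13-HODE standard curve; % inhibition relative to uninhibited reaction.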

[2] = Table 1, read-out: h15LO % Inhibition at 10 μM
[3] = 0.25 h, Table 2, read-out: h15LO % @ 10 μM

melting point [°C] | IC50 ([1]; Table 2) [nM] | SMILES | further results
160 to 162 | 330 | COC(=O)c1cccc(NC(=O)c2ccc(OC)c(N)c2)c1 [Example 149, 3-(3-Amino-4-methoxy-benzoylamino)-benzoic Acid Methyl Ester] | –
182 to 183 | 79 | CCCCS(=O)(=O)Nc1cc(C(=O)Nc2ccccc2)ccc1OC [Example 129, 3-(Butane-1-sulfonylamino)-4-methoxy-N-phenyl-benzamide] | –
197 to 198 | 54 | COc1ccc(C(=O)Nc2ccccc2)cc1NS(=O)(=O)c1ccc(C(F)(F)F)cc1 [Example 128, 3-(4-Trifluoromethyl-benzenesulfonylamino)-4-methoxy-N-phenyl-benzamide] | –
195 to 197 | 28 | COc1ccc(C(=O)Nc2ccccc2)cc1NS(=O)(=O)c1cccc(C)c1 [Example 138, 3-(Toluene-3-sulfonylamino)-4-methoxy-N-phenyl-benzamide] | –
200 to 202 | 48 | COc1ccc(C(=O)Nc2ccccc2)cc1NS(=O)(=O)c1ccc(C)cc1 [Example 124, 3-(4-Methyl-benzenesulfonylamino)-4-methoxy-N-phenyl-benzamide] | –
172 to 174 | 120 | O=C(Nc1ccc(F)c(NC(=S)Nc2cccc(C(F)(F)F)c2)c1)c1ccc(Cl)c(Cl)c1 [Example 114, 3,4-Dichloro-N-{4-fluoro-3-[3-(3-trifluoromethylphenyl)-thioureido]-phenyl}-benzamide] | –
260 to 261 | 609 | COc1ccc(C(=O)Nc2ccccc2)cc1NS(=O)(=O)c1sc(NC(C)=O)nc1C [Example 131, 3-(2-Acetylamino-4-methylthiazole-5-sulfonylamino)-4-methoxy-N-phenyl-benzamide] | –
190 to 194 | 40 | COc1ccc(C(=O)Nc2ccccc2)cc1NS(=O)(=O)c1ccccc1 [Example 120, 3-Benzenesulfonylamino-4-methoxy-N-phenyl-benzamide] | –
206 to 208 | – | COc1ccc(C(=S)Nc2ccccc2)cc1NS(=O)(=O)c1cc(Cl)cc(Cl)c1 [Example 208, 3-(3,5-Dichloro-benzenesulfonylamino)-4-methoxy-N-phenyl-thiobenzamide] | h15LO, value given as bare % ([1]; Table 2, concentration not given): 98.52%
184 to 185 | 34 | COc1ccc(C(=O)Nc2cccc(Cl)c2)cc1NC(=S)Nc1ccc(F)cc1 [Example 108, N-(3-Chlorophenyl)-3-[3-(4-fluorophenyl)-thioureido]-4-methoxy-benzamide] | –
184 to 186 | 25 | COc1ccc(S(=O)(=O)Nc2cc(C(=O)Nc3ccccc3)ccc2OC)cc1 [Example 121, 3-(4-Methoxy-benzenesulfonylamino)-4-methoxy-N-phenyl-benzamide] | –
169 to 170 | 79 | CCc1ccc(C(=O)Nc2ccc(F)c(F)c2)cc1NC(=S)Nc1cccc(C(F)(F)F)c1 [Example 111, 4-Ethyl-N-(3,4-difluorophenyl)-3-[3-(3-trifluoromethyl-phenyl)-thioureido]-benzamide] | –
198 to 200 | 151 | COc1ccc(C(=O)Nc2ccccc2)cc1NS(=O)(=O)c1ccc(F)cc1F [Example 137, 3-(2,4-Difluoro-benzenesulfonylamino)-4-methoxy-N-phenyl-benzamide] | –

Continued, compound first:

SMILES | melting point [°C] | IC50 ([1]; Table 2) [nM] | further results
CCc1ccc(C(=O)Nc2ccccc2)cc1N [Example 17, 3-Amino-4-ethyl-N-phenyl-benzamide] | 111 to 113 | – | inhibition at 10 µM [1, 2]: 65%
COc1ccc(NC(=O)Nc2ccccc2)cc1NC(=S)Nc1cc(Cl)cc(Cl)c1 [Example 86, 1-{3-[3-(3,5-Dichlorophenyl)-thioureido]-4-methoxyphenyl}-3-phenyl-urea] | 218 to 219 | 260 | –
COc1ccc(C(=O)Nc2cccc(Cl)c2)cc1N [Example 16, 3-Amino-4-methoxy-N-(3-chlorophenyl)-benzamide] | 144 to 146 | – | IC50 ([1]; Table 1): 79 nM
COc1ccc(C(=O)Nc2ccccc2)cc1NC(=S)Nc1cc(C(F)(F)F)cc(C(F)(F)F)c1 [Example 89, 3-[3-(3,5-Bis-trifluoromethylphenyl)-thioureido]-4-methoxy-N-phenyl-benzamide] | 192 to 193 | 35 | –
COc1ccc(C(=O)Nc2ccccc2)cc1NC(=S)Nc1ccc([N+](=O)[O-])cc1 [Example 88, 4-Methoxy-3-[3-(4-nitrophenyl)-thioureido]-N-phenyl-benzamide] | 183 to 184 | 33 | –
COc1ccc(C(=O)Nc2ccc(Cl)cc2)cc1N [Example 2, 3-Amino-4-methoxy-N-(4-chlorophenyl)-benzamide] | 191 to 192 | – | IC50 ([1]; Table 1): 290 nM
COc1ccc(C(=O)Nc2ccccc2)cc1Nc1ccc(C)cc1 [Example 34, 3-(4-Methyl-phenylamino)-4-methoxy-N-phenyl-benzamide] | 187 to 188 | 29 | –
COc1ccc(C(=O)Nc2ccccc2)cc1NC(=S)Nc1cccc(C(F)(F)F)c1 [Example 84, 4-Methoxy-N-phenyl-3-[3-(3-trifluoromethyl-phenyl)-thioureido]-benzamide] | 177 to 178 | 20 | –
CCc1ccc(C(=O)Nc2ccc(F)c(F)c2)cc1N [Example 19, 3-Amino-4-ethyl-N-(3,4-difluorophenyl)-benzamide] | 108 to 110 | – | IC50 ([1]; Table 1): 1100 nM
COc1ccc(C(=O)Nc2ccccc2)cc1Nc1cccc([N+](=O)[O-])c1 [Example 33, 3-(3-Nitro-phenylamino)-4-methoxy-N-phenyl-benzamide] | 220 to 221 | 12 | –
O=C(Nc1ccccc1)c1cccc(Oc2ccccc2)c1 [Example 53, 3-Phenoxy-N-phenyl-benzamide] | 111 to 112 | – | inhibition at 10 µM [1, 3]: 57%
COc1ccc(C(=O)Nc2ccc(C)cc2)cc1NC(=S)Nc1cc(Cl)cc(Cl)c1 [Example 94, 3-[3-(3,5-Dichlorophenyl)-thioureido]-4-methoxy-N-p-tolyl-benzamide] | 178 to 180 | 42 | –
COc1ccc(C(=O)Nc2ccc(C)c(C)c2)cc1N [Example 6, 3-Amino-4-methoxy-N-(3,4-dimethylphenyl)-benzamide] | 138 to 142 | – | inhibition at 10 µM [1, 2]: 79%
O=C(Nc1ccccc1)c1ccc(F)c(Nc2ccccc2)c1 [Example 37, 3-Phenylamino-4-fluoro-N-phenyl-benzamide] | 132 to 133 | 2940 | –
COc1ccc(C(=O)Nc2ccccc2)cc1NC(=S)Nc1cccc(C#N)c1 [Example 74, 3-[3-(3-Cyanophenyl)-thioureido]-4-methoxy-N-phenyl-benzamide] | 183 to 185 | 14.9 | –
COc1ccc(C(=O)Nc2ccccc2)cc1NC(=S)Nc1cccc(Cl)c1 [Example 61, 3-[3-(3-Chlorophenyl)-thioureido]-4-methoxy-N-phenyl-benzamide] | 165 to 168 | 11 | –
O=C(Nc1ccccc1)c1cccc(Nc2ccccc2)c1 [Example 25, 3-Phenylamino-N-phenyl-benzamide] | 134 to 135 | 6430 | –
COc1ccc(C(=O)Nc2ccccc2)cc1NC(=S)Nc1cccc(C(C)=O)c1 [Example 76, 3-[3-(3-Acetyl-phenyl)-thioureido]-4-methoxy-N-phenyl-benzamide] | 176 to 177 | 48 | –
COc1ccc(C(=O)Nc2ccccc2)cc1NC(=S)Nc1ccc(S(N)(=O)=O)cc1 [Example 90, 4-Methoxy-N-phenyl-3-[3-(4-sulfamoyl-phenyl)-thioureido]-benzamide] | 193 to 195 | 24 | –
COc1ccccc1Nc1cc(C(=O)Nc2ccccc2)ccc1OC [Example 29, 3-(2-Methoxy-phenylamino)-4-methoxy-N-phenyl-benzamide] | 155 to 156 | > 3000 | –
COc1ccccc1Nc1cccc(C(=O)Nc2ccccc2)c1 [Example 27, 3-(2-Methoxy-phenylamino)-N-phenyl-benzamide] | 153 to 154 | – | inhibition at 10 µM [1, 3]: 48%
CCOc1ccc(C(=O)Nc2ccccc2)cc1N [Example 10, 3-Amino-4-ethoxy-N-phenyl-benzamide] | 189 to 190 | – | inhibition at 10 µM [1, 2]: 42%

From patent US6528528B2 (Warner-Lambert Company, priority 1997, dated 2003)
